“And” between values parts separate entries of the source, which are not always exact repeats. Equal values may be shown once.
Legend:
Type in all cases: cell-based
[1] = target: T1, AaegOR10 (Aedes aegypti, UniProt Q177X3); assay: Two-electrode voltage clamp of Xenopus laevis oocytes expressing AaegOR10/Orco (blends, unitary compounds, concentration-response); conditions: unitary compounds of Indoles 1; individual oocytes 1-9 (replicates)
T1 sequence (Q177X3 1-375): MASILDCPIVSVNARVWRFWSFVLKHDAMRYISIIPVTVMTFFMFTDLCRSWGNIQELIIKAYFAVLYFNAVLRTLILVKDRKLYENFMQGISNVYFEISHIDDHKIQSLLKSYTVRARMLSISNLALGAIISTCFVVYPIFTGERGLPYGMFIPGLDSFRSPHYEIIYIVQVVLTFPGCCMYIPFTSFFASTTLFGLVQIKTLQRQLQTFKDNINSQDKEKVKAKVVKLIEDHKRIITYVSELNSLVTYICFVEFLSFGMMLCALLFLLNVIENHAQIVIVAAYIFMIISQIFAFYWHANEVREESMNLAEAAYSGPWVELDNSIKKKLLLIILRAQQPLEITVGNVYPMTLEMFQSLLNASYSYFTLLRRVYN
T1 sequence (Q178U6 1-478 partner): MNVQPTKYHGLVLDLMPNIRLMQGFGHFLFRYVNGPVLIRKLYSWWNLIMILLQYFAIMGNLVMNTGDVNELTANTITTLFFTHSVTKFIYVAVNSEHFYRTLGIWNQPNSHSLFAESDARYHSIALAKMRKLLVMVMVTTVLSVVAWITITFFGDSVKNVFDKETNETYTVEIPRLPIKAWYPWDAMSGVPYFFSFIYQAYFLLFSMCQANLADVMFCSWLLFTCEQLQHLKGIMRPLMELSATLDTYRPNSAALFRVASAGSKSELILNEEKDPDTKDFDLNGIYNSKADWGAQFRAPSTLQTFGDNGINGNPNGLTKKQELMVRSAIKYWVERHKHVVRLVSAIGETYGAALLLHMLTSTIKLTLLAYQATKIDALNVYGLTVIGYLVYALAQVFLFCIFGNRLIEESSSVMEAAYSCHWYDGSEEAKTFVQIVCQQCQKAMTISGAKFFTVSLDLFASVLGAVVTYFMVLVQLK
From the text: (§1) The coding regions of ten AaegOR genes of interest (S3 File) and AaegOrco were synthesized by Twist Bioscience (San Francisco, CA, USA) and cloned into the pENTR plasmid. The Gateway LR directional cloning system (Invitrogen Corp., Carlsbad, CA, USA) was utilized to subclone AaegOR coding regions into the pSP64t-RFA oocyte expression plasmid. Plasmids were purified using the GeneJet Plasmid Miniprep Kit (ThermoFisher Scientific, Waltham, MA, USA). Purified plasmids were sequenced in both directions to confirm coding regions.
(§2) Chemical compounds (S6 File) used in the deorphanization of AaegORs were purchased from Acros Organics (Morris, NJ, USA), Alfa Aesar (Ward Hill, MA, USA), and ThermoFisher Scientific (Waltham, MA, USA) at the highest purity available. Compounds were stored as 1M stocks in 100% DMSO. Serial dilutions of each compound were prepared in 10% DMSO and blended by chemical class.
(§3) pSP64t-RFA: AaegOR clones were linearized using Xbal, and cRNAs were synthesized using the mMESSAGE mMACHINE ® SP6 kit (Life Technologies, Carlsbad, CA, USA). Xenopus laevis stage V-VII oocytes purchased from Xenopus1 (Dexter, MI, USA) were stored at 18°C in Incubation medium (ND96 96 with 5% dialyzed horse serum, 50μg/mL gentamycin, 100μg/mL streptomycin, 100μg/mL penicillin, and 550μg/mL sodium pyruvate). 30nL of cRNA was injected into multiple oocytes using a microinjection syringe pump (World Precision Instruments, Sarasota, FL, USA) maintained at 18°C for 48–72 hrs. Odorant blends were perfused across individual oocytes for 10–15 seconds, held at a resting membrane potential of -80 mV using an OC-725C oocyte clamp (Warner Instruments, LLC, Hamden, CT, USA). Induced currents were measured indirectly using the two-electrode voltage clamp technique (TEVC). Following each stimulus, currents were allowed to return to baseline before further stimulation. Data was captured using the Digidata 1550 B digitizer and PClamp10 software (Molecular Devices, San Jose, CA, USA). Concentration-response curves were generated by perfusing unitary odorants over oocytes at increasing concentrations from [10^-3M] to [10^-9M]. Data were analyzed using GraphPad Prism 8 (GraphPad Software Inc., La Jolla, CA, USA). At least two biological replicates were conducted at each concentration and for each compound. Data for at least seven oocytes responding to each compound was analyzed (S7 File).

[2] = target: T2, AaegOR13 (Aedes aegypti, UniProt Q16Z13); assay: Two-electrode voltage clamp of Xenopus laevis oocytes expressing AaegOR13/Orco (blends, unitary compounds, concentration-response); conditions: unitary compounds
T2 sequence (Q16Z13 1-389): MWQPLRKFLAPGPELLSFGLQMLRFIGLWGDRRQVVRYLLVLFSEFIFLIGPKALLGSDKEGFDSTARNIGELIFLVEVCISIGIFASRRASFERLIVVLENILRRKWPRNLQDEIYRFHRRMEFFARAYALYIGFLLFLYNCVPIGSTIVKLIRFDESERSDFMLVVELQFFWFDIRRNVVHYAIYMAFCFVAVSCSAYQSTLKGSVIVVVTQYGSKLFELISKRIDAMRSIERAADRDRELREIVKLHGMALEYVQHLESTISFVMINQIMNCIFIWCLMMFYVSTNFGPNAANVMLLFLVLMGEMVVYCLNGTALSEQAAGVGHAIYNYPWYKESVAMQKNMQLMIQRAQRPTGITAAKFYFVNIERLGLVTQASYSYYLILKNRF
T2 sequence (Q178U6 1-478 partner): T1 sequence (Q178U6 1-478 partner)
In short: (§4)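 Xenopus oocytes injected with cRNA for AaegOR plus Orco, kept 48–72 hrs at 18°C, clamped at -80 mV by TEVC. Odorant blends or single compounds (10% DMSO dilutions) perfused 10–15 s; concentration-response from 10^-3M to 10^-9M, ≥7 responding oocytes, ≥2 biological replicates.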

[3] = target: T3, AaegOR55 (Aedes aegypti, UniProt Q16T12); assay: Two-electrode voltage clamp of Xenopus laevis oocytes expressing AaegOR55/Orco (blends, unitary compounds, concentration-response); conditions: AaegOR55, compounds of blend Indoles 1
T3 sequence (Q16T12 10-392): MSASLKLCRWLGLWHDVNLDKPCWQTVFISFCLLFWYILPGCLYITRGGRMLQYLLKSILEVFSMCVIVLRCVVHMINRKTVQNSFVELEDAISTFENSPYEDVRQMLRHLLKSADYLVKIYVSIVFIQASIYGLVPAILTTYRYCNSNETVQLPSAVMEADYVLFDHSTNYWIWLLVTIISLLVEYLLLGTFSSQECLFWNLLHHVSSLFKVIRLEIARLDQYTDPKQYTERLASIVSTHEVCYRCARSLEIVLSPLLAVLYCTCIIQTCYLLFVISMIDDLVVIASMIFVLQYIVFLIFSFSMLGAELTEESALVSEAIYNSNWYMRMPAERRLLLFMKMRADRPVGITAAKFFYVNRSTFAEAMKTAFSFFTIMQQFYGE
T3 sequence (Q178U6 1-478 partner): T1 sequence (Q178U6 1-478 partner)
From the text: as §1, §2, §3

[4] = target: T4, AaegOR15 (Aedes aegypti, UniProt A0A6B9QIR2); assay: Two-electrode voltage clamp of Xenopus laevis oocytes expressing AaegOR15/Orco (blends, unitary compounds, concentration-response); conditions: unitary compounds of Alcohols 2; for Raw data (Responses in nA), compounds of blend Alcohols 2: individual oocytes 1-10 (replicates)
T4 sequence (A0A6B9QIR2 1-390): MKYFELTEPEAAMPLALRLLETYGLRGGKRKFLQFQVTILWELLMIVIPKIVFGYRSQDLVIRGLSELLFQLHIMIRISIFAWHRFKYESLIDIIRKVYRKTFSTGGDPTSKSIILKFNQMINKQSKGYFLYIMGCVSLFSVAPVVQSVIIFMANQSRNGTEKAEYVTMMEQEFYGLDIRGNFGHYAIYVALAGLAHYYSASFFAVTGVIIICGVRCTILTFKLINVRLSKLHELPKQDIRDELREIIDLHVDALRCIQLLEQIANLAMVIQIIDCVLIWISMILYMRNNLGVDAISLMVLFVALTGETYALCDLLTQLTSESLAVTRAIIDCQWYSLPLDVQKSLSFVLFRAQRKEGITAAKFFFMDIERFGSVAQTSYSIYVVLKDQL
T4 sequence (Q178U6 1-478 partner): T1 sequence (Q178U6 1-478 partner)
In short: as §4

[5] = target: T5, AaegOR28 (Aedes aegypti, UniProt Q0IGE1); assay: Two-electrode voltage clamp of Xenopus laevis oocytes expressing AaegOR28/Orco (blends, unitary compounds, concentration-response); conditions: AaegOR28, compounds of blend Alcohols 3; for Raw Data (Responses in nA), Alcohols 3 unitary compounds: individual oocytes 1-10
T5 sequence (Q0IGE1 1-394): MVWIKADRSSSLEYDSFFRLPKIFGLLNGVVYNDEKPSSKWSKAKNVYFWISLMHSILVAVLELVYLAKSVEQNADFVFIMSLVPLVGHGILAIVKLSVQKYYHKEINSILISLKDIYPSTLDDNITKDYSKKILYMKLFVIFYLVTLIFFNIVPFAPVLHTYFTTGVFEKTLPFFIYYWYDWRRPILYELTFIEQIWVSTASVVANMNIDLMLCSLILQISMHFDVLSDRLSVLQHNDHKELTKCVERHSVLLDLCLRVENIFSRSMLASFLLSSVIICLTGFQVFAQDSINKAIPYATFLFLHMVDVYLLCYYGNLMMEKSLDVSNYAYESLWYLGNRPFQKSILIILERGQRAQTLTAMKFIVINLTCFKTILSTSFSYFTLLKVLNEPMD
T5 sequence (Q178U6 1-478 partner): T1 sequence (Q178U6 1-478 partner)
From the text: as §1, §2, §3

[6] = individual oocytes (Oocyte 1-7)

Compound | Raw response, unitary compounds of blend Indoles 1 [1] | Raw data (Responses in nA), unitary compounds of Indoles 1, Alcohols 1, Alcohols 3 ([2]; individual oocytes 1-7) | Raw Data (Responses in nA), Indoles 1 unitary compounds [3, 6] | Raw data (Responses in nA), compounds of blend Alcohols 2 [4] | Raw Data (Responses in nA), Alcohols 3 unitary compounds [5] | other results
COC(=O)c1c[nH]c2ccccc12 [methyl indole-3-carboxylate] | 0.0 nA (6×) and 10.0 nA (2×) and 30.0 nA | 0.0 nA and 20.0 nA and 15.0 nA (2×) and 10.0 nA (3×) |  |  |  | 
COC(=O)c1c[nH]c2ccccc12 [methylindole-3-carboxylate] |  |  | 20.0 nA and 10.0 nA (5×) and 15.0 nA |  |  | Normalized response, Average, Indoles 1 unitary compounds ([3]; average of 7 oocytes): 5.2; Normalized response, Indoles 1 unitary compounds ([3]; individual oocytes (Oocyte 1-7), normalized to the strongest compound per oocyte): 8.5 and 7.1 and 4.0 and 3.3 and 5.4 and 4.9 and 3.4
C=CC(C)(O)CC/C=C(\C)CC/C=C(\C)CCC=C(C)C (stereo not shown) [Geranyl Linalool] |  | 0.0 nA |  | 0.0 nA (7×) and 10.0 nA (3×) | 0 nA | Normalized response, compounds of blend Alcohols 2, Average ([4]; average of 10 oocytes, 1-hexanol = 100): 0.4; Normalized response, compounds of blend Alcohols 2 ([4]; individual oocytes 1-10, normalized to the largest response of each oocyte (1-hexanol = 100)): 0.0 (7×) and 1.3 and 0.9 and 1.7; Normalized response, Average, Alcohols 3 unitary compounds ([5]; average of 10 oocytes): 0.0; Normalized response, Alcohols 3 unitary compounds ([5]; individual oocytes 1-10, normalized to largest response of each oocyte): 0.0 (9×) and 0; Normalized response, unitary compounds, Average ([2]; average of oocytes 1-7): 0.0; Normalized response, unitary compounds of Indoles 1, Alcohols 1, Alcohols 3 ([2]; normalized per oocyte, individual oocytes 1-7): 0.0
CC12CCC(CC1)C(C)(C)O2 [1,8-cineole] |  | 0.0 nA |  | 0.0 nA (3×) and 5.0 nA (3×) and 10.0 nA (4×) | 5 nA and 0 nA (9×) | 
O=Cc1c[nH]c2ccccc12 [indole-3-carboxaldehyde] | 80.0 nA and 30.0 nA and 100.0 nA and 20.0 nA (2×) and 70.0 nA and 0.0 nA (3×) |  | 50.0 nA and 25.0 nA (2×) and 40.0 nA and 20.0 nA and 45.0 nA and 35.0 nA |  |  | 
